Test results taken from patent publication US11059801B2, “Methods to induce targeted protein degradation through bifunctional molecules” (Dana-Farber Cancer Institute, Inc., priority 2014, dated 2021).

Test system: 797
Assay: Cell IC50, 797 (Table 4-1)
Type: cell-based
Conditions: read-out: IC50 (nM) 797; 797 cells

- IC50: 1450 nM
SMILES: COc1cc(C(=O)NCCCCCCCCNC(=O)COc2cccc3c2C(=O)N(C2CCC(=O)NC2=O)C3=O)ccc1Nc1ccc2c(n1)N(C1CCCC1)[C@H](C)C(=O)N2C (stereo partly shown) [dBET45]
